From patent publication US20250025443A1, “COMPOUNDS AND METHODS FOR TREATING CORONA VIRUSES” (CLEAR CREEK BIO, INC., priority 2021, published 2025)

Molecular target: SARS-CoV-2 Papain-Like Protease (PLpro) (Severe acute respiratory syndrome coronavirus 2 (2019-nCoV) (SARS-CoV-2), UniProt P0DTD1)
Test: biochemical
Details: PLpro enzymatic fluorescence assay; class symbols; read-out: PLpro IC50

Compound | IC50 [nM]
Cc1ccc2c(C3(NC(=O)c4cc(OC[C@@H]5CCN5C)ccc4C)CC3)cc(NCC(F)(F)F)cc2n1 [Compound 826, (S)-2-Methyl-N-(1-(2-methyl-7-((2,2,2-trifluoroethyl)amino)quinolin-5-yl)cyclopropyl)-5-((1-methylazetidin-2-yl)methoxy)benzamide] | < 100
(S)-2-Methyl-N-(1-(2-methyl-7-((2,2,2-trifluoroethyl)amino)quinolin-5-yl)cyclopropyl)-5-((1-methylazetidin-2-yl)methoxy)benzamide [Compound 807] | < 100
(S)-5-(Azetidin-2-ylmethoxy)-2-methyl-N-(1-(7-morpholinoquinolin-5-yl)cyclopropyl)benzamide [Compound 712] | < 100
(S)—N-(1-(7-Methoxy-2-methylquinolin-5-yl)cyclopropyl)-2-methyl-5-((1-(methyl-d3)azetidin-2-yl)methoxy)benzamide [Compound 798] | < 100
